Measurements as given in patent publication US7989602B2, “Synthetic molecules having immune activity” (The Malaghan Institute of Medical Research, priority 2003, dated 2011).
Where two headings read alike, the source gives them in different places.

Experiments:
[1] = test system: C57BL-6 mouse spleen cells; experiment: Cytokine production in vitro by mouse spleen cells (ELISA); format: cell-based
[2] = test system: airway eosinophilia; experiment: OVA-induced airway eosinophilia mouse model; format: in vivo, C57B1/6J mice
[3] = 5 μg/ml in PBS, 24 hours, 10^6 cells per well, ELISA
[4] = 5 μg/ml, dissolved in Tween/PBS, PIM-2 control also in 0.02% Tween/PBS, 24 hours

| Molecule | IFNγ compared with PIM-2 control [1, 3] | IL-12 compared with PIM-2 control [1, 3] | induced production of IL-12 ([1]; in words, summary of Table 4) | induced production of IFNγ ([1]; in words, summary of Table 4) | further results |
| --- | --- | --- | --- | --- | --- |
| CCCCCCCCCCCCCCCCCCOP(=O)([O-])OC(COC1OC(CO)C(O)C(O)C1O)COC1OC(CO)C(O)C(O)C1O.[Na+] [Compound 47, Sodium 2-O-(Octadecylphosphoryl)-1,3-bis-O-(α-D-mannopyranosyl)glycerol] | 0.03 | 0.56 | induced production | – | IL-4 compared with PIM-2 control [1, 3]: 1.94; IL-10 compared with PIM-2 control [1, 3]: 0.53; induced production of IL-4 ([1]; in words, summary of Table 4): greater levels; induced production of IL-10 ([1]; in words, summary of Table 4): induced production |
| CCCCCCCCCCCCCCCCCC(=O)OCC(COP(=O)(O)OC(COC1OC(CO)C(O)C(O)C1O)COC1OC(CO)C(O)C(O)C1O)OC(=O)CCCCCCCCCCCCCCCCC [Compound 15, Triethylammonium 2-O-(1,2-O-distearoyl-sn-glycero-3-phoshoryl)-1,3-bis-O-(α-D-mannopyranosyl)glycerol] | 0.98 | – | – | levels comparable to PIM-22,6 | Mean Eosinophil Count (×10^6), least square means by test molecule type ([2]; BAL 4 days after intranasal OVA challenge, intranasal treatment in 50 μl PBS, mean over dose rates 0, 0.02, 0.2, 2.0): 0.144 ×10^6 |
| CCCCCCCCCCCCCCCCCC(=O)OC[C@H](COP(=O)([O-])O[C@@H]1CCCC[C@H]1OC1OC(CO)C(O)C(O)C1O)OC(=O)CCCCCCCCCCCCCCCCC.[Na+] (stereo partly drawn) [Compound 36, 1-O-(Sodium 1,2-di-O-stearoyl-sn-glycero-3-phosphoryl)-2-O-(-α-D-mannopyranosyl)-cyclohexane-1,2-diol] | 0.05 | 1.59 | levels greater than PIM-22,6 | – | IL-4 compared with PIM-2 control [1, 3]: 4.29; IL-10 compared with PIM-2 control [1, 3]: 0.60; induced production of IL-4 ([1]; in words, summary of Table 4): levels greater than PIM-22,6 |
| CCCCCCCCCCCCCCCCCC(=O)OC[C@H](COP(=O)([O-])OCCO[C@H]1O[C@H](CO[C@H]2O[C@H](CO)[C@@H](O)[C@H](O)[C@@H]2O)[C@@H](O)[C@H](O)[C@@H]1O)OC(=O)CCCCCCCCCCCCCCCCC.[Na+] [Compound 28, Sodium 1-O-(1,2-di-O-stearoyl-sn-glycero-3-phosphoryl)-2-O-[6-O-(α-D-mannopyranosyl)-α-D-mannopyranosyl]-1,2-ethanediol] | – | – | – | – | IFNγ compared with PIM-2 control [1]: 0.62; IL-10 compared with PIM-2 control [1]: 0.36; IL-12 compared with PIM-2 control [1]: 1.15; induced production of IFNγ [1]: notable levels; induced production of IL-12 [1]: notable levels |
| CCCCCCCCCCCCCCCCCC(=O)OCC(CO[C@H]1O[C@H](CO)[C@@H](O)[C@H](O)[C@@H]1O)OC(=O)CCCCCCCCCCCCCCCCC (mixture of isomers) [Compound 17, 1,2-di-O-stearoyl-3-O-α-D-mannopyranosylglycerol] | – | – | – | – | biological activity ([2]; results not shown, stated in Example 2): not biologically active |
| CCCCCCCCCCCCCCCCCC(=O)OC[C@H](COP(=O)(O)OCCO[C@H]1O[C@H](CO)[C@@H](O)[C@H](O)[C@@H]1O)OC(=O)CCCCCCCCCCCCCCCCC [Compound 7, Triethylammonium 1-O-(1,2-di-O-stearoyl-sn-glycero-3-phosphoryl)-2-O-(α-D-mannopyranosyl)-1,2-ethanediol] | – | – | notable levels | notable levels | IFNγ compared with PIM-2 control [1, 4]: 1.26; IL-12 compared with PIM-2 control [1, 4]: 1.03 |
| L-α-Phosphatidylinositol [reference compound] | 0.39 | – | – | – | – |
| CCCCCCCCCCCCCCCCCC(=O)OC[C@H](COP(=O)([O-])OC(COC1OC(CO)C(O)C(O)C1O)COC1OC(CO)C(O)C(O)C1O)OC(=O)CCCCCCCCCCCCCCCCC.[Na+] (stereo partly drawn) [Compound 44, Sodium(1,2-di-O-stearoyl-sn-glycero-3-phoshoryl)-2-[1,3-bis-O-(α-D-galactopyranoside)]glycerol] | – | 0.14 | a small amount | – | induced production of IL-12 ([1]; in words, summary of Table 4, listed as compound 44): only a low level |
| CCCCCCCCCCCCCCCCCC(=O)OC[C@H](COP(=O)([O-])OCCCOC1OC(CO)C(O)C(O)C1O)OC(=O)CCCCCCCCCCCCCCCCC.[Na+] (stereo partly shown) [Compound 31] | 0.75 | 1.80 | notable levels | notable levels | – |
